Laboratory results: patent publication US20110065632A1, “PHARMACEUTICAL COMPOSITIONS OF SOMATOSTATIN-DOPAMINE CONJUGATES” (priority 2008, published 2011)
Like-named read-outs stand apart in the source and are kept apart here. Numbered stars: 1 amine (or outer) side, 2 acyl side, 3 side chain; on linkers, the order of the positions; unused ones are H or OH. Bridge positions count the residues as written; N and C are the ends. Square brackets hold non-standard residues; d marks the D form. Peptide text beside a SMILES is read from it. * marks the point of attachment. X2 = CN1C[C@H](CSCC(=O)*)C[C@@H]2c3cccc4[nH]cc(c34)C[C@H]21; Pipz(1-CH2CO,4-CH2CH2NH) = O=C(CN1CCN(CCN[*:1])CC1)[*:2]; Abu = CC[C@H](N)C(=O)O

Key:
hsst1 = biological target: T1, hsst1 (Homo sapiens, UniProt P30872); assay: Somatostatin receptor radioligand binding assay, hsst1
T1 construct: expressed in transfected cells
Protocol: Specificity and selectivity of the somatostatin analogues used to synthesize the somatostatin-dopamine chimers were determined by a radioligand binding assay on CHO-K1 cells stably transfected with each of the SSTR subtypes, as follows. Somatostatin analogs are also described in U.S. Patent Application Publication No. 02210006790. The complete coding sequences of genomic fragments of the SSTR 1 (e.g., Genbank accession No. M81829), SSTR 2 (e.g., Genbank accession No. M81830), SSTR 3 (e.g., Genbank accession No. L07062), and SSTR 4 (e.g., Genbank accession No. AL049651) genes and a cDNA clone for SSTR 5 (e.g., Genbank accession No. D16827) was subcloned into the mammalian expression vector pCMV (Life Technologies, Milano, Italy). Other SSTR sequences are known to the skilled artisan. Clonal cell lines stably expressing SSTR's 1-5 were obtained by transfection into CHO-K1 cells (ATCC, Manassas, Va., USA) using the calcium phosphate co-precipitation method (Davis L, et al., 1994 In: Basic methods in Molecular Biology, 2nd edition, Appleton & Lange, Norwalk, Conn., USA: 611-646). The plasmid pRSV-neo (ATCC) was included as a selectable marker. Clonal cell lines were selected in RPMI 1640 media containing 0.5 mg/mL of G418 (Life Technologies, Milano, Italy), ring cloned, and expanded into culture.
Membranes for in vitro receptor binding assays were obtained by homogenizing the CHO-K1 cells expressing the SSTR's subtypes in ice-cold 50 mM Tris-HCl and centrifuging twice at 39,000 g (10 min), with an intermediate resuspension in fresh buffer. The final pellets were resuspended in 10 mM Tris-HCl for assay.
For the SSTR 1, 3, 4, and 5 assays, aliquots of the membrane preparations were incubated 90 minutes at 25° C. with 0.05 nM [^125I-Tyr11]SS-14 in 50 mM HEPES (pH 7.4) containing 10 mg/mL BSA, 5 mM MgCl2, 200 KIU/mL Trasylol, 0.02 mg/mL bacitracin, and 0.02 mg/mL phenylmethylsuphonyl fluoride. The final assay volume was 0.3 mL.
For the SSTR 2 assay, 0.05 nM [^125I]MK-678 was employed as the radioligand and the incubation time was 90 minutes at 25° C. The incubations were terminated by rapid filtration through GF/C glass microfiber filters (Whatman Co.) (pre-soaked in 0.3% polyethylenimine) using a BRANDEL filtration manifold. Each tube and filter was washed three times with 5 mL aliquots of ice-cold buffer. Specific binding was defined as the total radioligand bound minus that bound in the presence of 1000 nM SS-14 for SSTR 1, 3, 4, and 5, or 1000 nM MK-678 for SSTR2.
(§1) Using the discussed assays, the inhibition constants (Ki) for the five human somatostatin receptors (hSSTR1-hSSTR5) and the dopamine-2 receptor (hUTII and hDA2) were measured for the exemplified somatostatin-dopamine conjugates, as follows: […]

hsst2 = biological target: T2, hsst2 (Homo sapiens, UniProt P30874); assay: Somatostatin receptor radioligand binding assay, hsst2; conditions: CHO-K1 membranes, [125I]MK-678; read-out: hsst2 Ki
T2 construct: expressed in transfected cells
Outline: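 Membranes from CHO-K1 cells stably expressing human SSTR2, in 10 mM Tris-HCl, incubated 90 min at 25 °C with 0.05 nM [125I]MK-678. Bound ligand collected by filtration on PEI-soaked GF/C filters; nonspecific binding defined with 1000 nM MK-678.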

hsst3 = biological target: T3, hsst3 (Homo sapiens, UniProt P32745); assay: Somatostatin receptor radioligand binding assay, hsst3
T3 construct: expressed in transfected cells
Outline: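 Membranes from CHO-K1 cells stably transfected with each human SSTR subtype, incubated 90 min at 25 °C with 0.05 nM [125I-Tyr11]SS-14 in 50 mM HEPES pH 7.4 with BSA, MgCl2 and protease inhibitors; filtration read-out. Nonspecific binding with 1000 nM SS-14; Ki values reported.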

hsst5 = biological target: T4, hsst5 (Homo sapiens, UniProt P35346); assay: Somatostatin receptor radioligand binding assay, hsst5; conditions: CHO-K1 membranes, [125I-Tyr11]SS-14
T4 construct: expressed in transfected cells
Outline: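 Membranes from CHO-K1 cells stably expressing hsst5, incubated 90 min at 25 °C with 0.05 nM [125I-Tyr11]SS-14 in 50 mM HEPES pH 7.4 with BSA, MgCl2 and protease inhibitors. Bound ligand collected by filtration. Non-specific binding defined with 1000 nM SS-14.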

hUTII = biological target: T5, hUTII (Homo sapiens, UniProt Q9UKP6); assay: hUTII inhibition constant; type: binding; conditions: read-out: hUTII Ki
T5 sequence (Q9UKP6 1-389): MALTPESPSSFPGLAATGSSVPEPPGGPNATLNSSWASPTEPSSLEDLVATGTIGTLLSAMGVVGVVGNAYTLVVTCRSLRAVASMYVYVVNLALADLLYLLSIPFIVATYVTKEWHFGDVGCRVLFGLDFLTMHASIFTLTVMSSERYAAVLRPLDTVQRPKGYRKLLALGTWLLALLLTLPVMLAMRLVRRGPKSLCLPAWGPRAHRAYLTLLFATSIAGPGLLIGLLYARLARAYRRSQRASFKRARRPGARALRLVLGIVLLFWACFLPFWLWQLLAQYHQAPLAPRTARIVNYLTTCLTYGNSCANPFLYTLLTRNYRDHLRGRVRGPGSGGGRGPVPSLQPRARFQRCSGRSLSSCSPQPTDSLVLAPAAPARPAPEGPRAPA
Protocol: as §1

hDA2 = assay: Dopamine-2 receptor radioligand binding assay; design: species or system human; conditions: [3H]spiperone
[1] = CHO-K1 membranes, [125I-Tyr11]SS-14, read-out: hsst1 Ki
[2] = CHO-K1 membranes, [125I-Tyr11]SS-14, read-out: hsst3 Ki

T4 sequence (P35346 whole entry): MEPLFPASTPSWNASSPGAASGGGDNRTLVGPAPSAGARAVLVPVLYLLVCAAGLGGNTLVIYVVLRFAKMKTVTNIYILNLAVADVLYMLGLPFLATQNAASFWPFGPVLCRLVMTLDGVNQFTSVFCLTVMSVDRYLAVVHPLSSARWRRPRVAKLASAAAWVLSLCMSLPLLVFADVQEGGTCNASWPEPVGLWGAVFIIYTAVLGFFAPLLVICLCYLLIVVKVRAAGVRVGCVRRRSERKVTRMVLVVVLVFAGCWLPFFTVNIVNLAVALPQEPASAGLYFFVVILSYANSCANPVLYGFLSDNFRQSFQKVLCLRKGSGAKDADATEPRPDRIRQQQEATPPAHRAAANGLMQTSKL
T3 sequence (P32745 whole entry): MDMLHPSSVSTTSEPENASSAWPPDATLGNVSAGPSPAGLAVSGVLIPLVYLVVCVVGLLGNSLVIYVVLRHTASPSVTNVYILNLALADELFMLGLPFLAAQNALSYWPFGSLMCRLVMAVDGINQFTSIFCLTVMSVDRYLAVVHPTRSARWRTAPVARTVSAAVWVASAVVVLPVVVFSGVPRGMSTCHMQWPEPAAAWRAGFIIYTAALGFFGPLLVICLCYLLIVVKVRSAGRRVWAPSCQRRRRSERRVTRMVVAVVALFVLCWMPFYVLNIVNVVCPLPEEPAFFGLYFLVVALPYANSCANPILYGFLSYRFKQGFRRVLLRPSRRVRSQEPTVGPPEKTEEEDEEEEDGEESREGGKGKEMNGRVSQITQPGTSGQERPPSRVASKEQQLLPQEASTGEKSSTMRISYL
T2 sequence (P30874 whole entry): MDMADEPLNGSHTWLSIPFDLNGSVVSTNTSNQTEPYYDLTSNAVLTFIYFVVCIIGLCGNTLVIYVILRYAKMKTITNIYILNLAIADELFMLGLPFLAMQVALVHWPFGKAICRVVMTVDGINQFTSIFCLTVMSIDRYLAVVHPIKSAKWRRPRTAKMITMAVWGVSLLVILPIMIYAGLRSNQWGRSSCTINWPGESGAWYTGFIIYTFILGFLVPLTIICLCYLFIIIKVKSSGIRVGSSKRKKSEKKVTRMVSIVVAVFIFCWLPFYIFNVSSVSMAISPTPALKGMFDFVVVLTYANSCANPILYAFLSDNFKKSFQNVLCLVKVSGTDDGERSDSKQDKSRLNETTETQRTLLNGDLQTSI
T1 sequence (P30872 whole entry): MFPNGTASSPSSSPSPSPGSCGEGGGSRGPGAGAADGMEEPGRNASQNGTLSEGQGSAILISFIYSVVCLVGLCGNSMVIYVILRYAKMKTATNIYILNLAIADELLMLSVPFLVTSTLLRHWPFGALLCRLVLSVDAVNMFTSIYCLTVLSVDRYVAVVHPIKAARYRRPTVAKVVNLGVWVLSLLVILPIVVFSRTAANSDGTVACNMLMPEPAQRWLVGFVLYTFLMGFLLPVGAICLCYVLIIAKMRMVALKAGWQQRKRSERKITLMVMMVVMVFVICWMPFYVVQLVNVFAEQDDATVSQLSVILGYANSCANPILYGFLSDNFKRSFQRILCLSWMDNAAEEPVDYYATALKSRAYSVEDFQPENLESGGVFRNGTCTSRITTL

| SMILES | Ki (hsst1; [1]) [nM] | Ki (hsst2) [nM] | Ki (hsst3; [2]) [nM] | Ki (hsst5; read-out: hsst5 Ki) [nM] | Ki (hUTII) [nM] | Ki (hDA2) [nM] | Ki (hsst1) [nM] | Ki (hsst3) [nM] | Ki (hsst5; hsst5 Ki) [nM] |
| --- | --- | --- | --- | --- | --- | --- | --- | --- | --- |
| CCCN1C[C@H](CSCC(=O)NCCN2CCN(CC(=O)N[C@H](Cc3ccccc3)C(=O)N[C@H]3CSSC[C@@H](C(=O)N[C@H](C(N)=O)[C@@H](C)O)NC(=O)[C@H](CC)NC(=O)[C@H](CCCCN)NC(=O)[C@@H](Cc4c[nH]c5ccccc45)NC(=O)[C@H](Cc4ccc(O)cc4)NC3=O)CC2)C[C@@H]2c3cccc4[nH]cc(c34)C[C@H]21 [Example 24] | 1000 | 0.37 | 154 | 24.2 | 1510 | 143 |  |  |  |
| CC[C@@H]1NC(=O)[C@H](CCCCN)NC(=O)[C@@H](Cc2c[nH]c3ccccc23)NC(=O)[C@H](Cc2ccc(O)cc2)NC(=O)[C@@H](NC(=O)[C@@H](Cc2ccc(O)cc2)NC(=O)[C@@H](Cc2ccc(O)cc2)NC(=O)[C@H](CCCCN)NC(=O)CN2CCN(CCNC(=O)CN3CCN(CCNC(=O)CSC[C@@H]4C[C@@H]5c6cccc7[nH]cc(c67)C[C@H]5N(C)C4)CC3)CC2)CSSC[C@@H](C(=O)N[C@H](C(N)=O)[C@@H](C)O)NC1=O [Example 28] (X2-[Pipz(1-CH2CO,4-CH2CH2NH)][Pipz(1-CH2CO,4-CH2CH2NH)]K[dY][dY]CY[dW]K[Abu]CT-NH2; disulfide 6-11) |  | 0.11 |  |  | 564 | 506 | 661 | 156 | 5.13 |
| CC[C@@H]1NC(=O)[C@H](CCCCN)NC(=O)[C@@H](Cc2c[nH]c3ccccc23)NC(=O)[C@H](Cc2ccc(O)cc2)NC(=O)[C@@H](NC(=O)[C@@H](Cc2ccccc2)NC(=O)COCCOCCNC(=O)CSC[C@@H]2C[C@@H]3c4cccc5[nH]cc(c45)C[C@H]3N(C)C2)CSSC[C@@H](C(=O)N[C@H](C(N)=O)[C@@H](C)O)NC1=O [Example 40] | 1000 | 0.32 | 70.3 | 17 | 223 | 255 |  |  |  |
| CC[C@@H]1NC(=O)[C@H](CCCCN)NC(=O)[C@@H](Cc2c[nH]c3ccccc23)NC(=O)[C@H](Cc2ccc(O)cc2)NC(=O)[C@@H](NC(=O)[C@@H](Cc2ccccc2)NC(=O)COCCOCCNC(=O)COCCOCCNC(=O)CSC[C@@H]2C[C@@H]3c4cccc5[nH]cc(c45)C[C@H]3N(C)C2)CSSC[C@@H](C(=O)N[C@H](C(N)=O)[C@@H](C)O)NC1=O [Example 42] | 1000 | 0.34 | 120 | 20.6 | 510 | 278 |  |  |  |

More lines, in order of falling Ki (hsst1; [1]), values ahead:

| Ki (hsst1; [1]) [nM] | Ki (hsst2) [nM] | Ki (hsst3; [2]) [nM] | Ki (hsst5; read-out: hsst5 Ki) [nM] | Ki (hUTII) [nM] | Ki (hDA2) [nM] | SMILES | Ki (hsst1) [nM] | Ki (hsst3) [nM] | Ki (hsst5; hsst5 Ki) [nM] |
| --- | --- | --- | --- | --- | --- | --- | --- | --- | --- |
| 691 | 0.1 | 84.6 | 22.6 | 498 | 25.5 | CCCN1C[C@H](CSCC(=O)N[C@H](Cc2ccccc2)C(=O)N[C@H]2CSSC[C@@H](C(=O)N[C@H](C(N)=O)[C@@H](C)O)NC(=O)[C@H](CC)NC(=O)[C@H](CCCCN)NC(=O)[C@@H](Cc3c[nH]c4ccccc34)NC(=O)[C@H](Cc3ccc(O)cc3)NC2=O)C[C@@H]2c3cccc4[nH]cc(c34)C[C@H]21 [Example 31] |  |  |  |
| 689 | 0.15 | 49.5 | 15.7 | 619 | 23.7 | CC[C@@H]1NC(=O)[C@H](CCCCN)NC(=O)[C@@H](Cc2c[nH]c3ccccc23)NC(=O)[C@H](Cc2ccc(O)cc2)NC(=O)[C@@H](NC(=O)[C@@H](Cc2ccccc2)NC(=O)CSC[C@@H]2C[C@@H]3c4cccc5[nH]cc(c45)C[C@H]3N(C)C2)CSSC[C@@H](C(=O)N[C@H](C(N)=O)[C@@H](C)O)NC1=O [Example 30] |  |  |  |
